Molecule `CNC(=O)[C@H]1O[C@@H](n2cnc3c(NCc4cc(Cl)ccc4OCc4snnc4C)ncnc32)[C@H](O)[C@@H]1N` [Example 33, (2S,3S,4R,5R)3-Amino-5-{6-[5-chloro-2-(4-methyl-[1,2,3]thiadiazol-5-ylmethoxy)benzylamino]purin-9-yl}-4-hydroxytetrahydrofuran-2-carboxylic acid methylamide] has a melting point of 107 to 110 °C.

— US6803457B1, “Compounds for the treatment of ischemia” (Pfizer, Inc., priority 1999, dated 2004)
